Data published in US20140273008A1, “METHODS TO ASSESS ENZYME ACTIVITY USING MASS SPECTROMETRIC IMMUNOASSAY” (Molecular BioProducts, Inc., priority 2013, published 2014).

Target: T1, DPP4 (Homo sapiens, UniProt P27487)
T1 construct: from tissue; host or cells: human heparinized plasma
Assay: DPP4 activity by MSIA: substrate conversion in human heparinized plasma spiked with recombinant DPP4 substrate peptide and inhibitor
Type: biochemical
Protocol: MSIA is a method by which sample purification and preparation occurs essentially simultaneously with sample aliquot and delivery. More specifically, a pipette tip, into which a specific volume of a clinical sample, human or animal, is drawn, contains an affinity reagent for selective preparation and immuno-affinity purification of the sample for subsequent direct mass spectrometer analysis; i.e., no intervening purification steps are performed. As shown schematically in FIG. 1, a clinical sample is drawn into a pipette tip containing an exogenous synthetic peptide substrate. The clinical sample and the exogenous peptide substrate are incubated to effect binding of the exogenous peptide substrate to a specific enzyme that is present in the clinical sample. After washes with buffer and water, the eluant is used for subsequent MS analysis. In this elution process, the eluate is dispensed into a microtiter plate for LC/MS application, directly into a LC/MS, or onto a target for MS insertion. Regardless of the MS technique applied, the eluant contained the exogenous peptide substrates, both the parent exogenous peptide substrate and the cleaved degraded product that was produced based on the activity of the enzyme contained in the clinical sample.
An exogenous synthetic peptide that is a substrate for the enzyme to be assessed is introduced into a clinical specimen, e.g., blood, urine, plasma, cerebrospinal fluid, lymphatic fluid, etc., i.e., the clinical sample is spiked or doped with the exogenous synthetic peptide substrate. For example, if the enzyme to be assessed is DPP4, the sample may be spiked with an exogenous peptide substrate for DPP4, e.g., recombinant GLP1, natriuretic peptide, etc. The exogenous synthetic peptide substrate that is added to the clinical sample in vitro is termed the parent substrate. The sample is then analyzed by MS, or is incubated for a set period of time before MS analysis. Incubation may be for any desired time period, and at any desired temperature, e.g., ambient temperature 19° C.-22° C., or at another desirable temperature, e.g., 37° C. Enzyme that is present in the clinical sample proteolytically cleaves the exogenous parent synthetic peptide substrate into a smaller fragment. The exogenous synthetic peptide substrates, both the parent (unreacted) and the cleaved (reacted) degraded product, are the targets that are monitored by subsequent MSIA. The method may be summarized as follows:
In one embodiment, a MS measurement of the exogenous synthetic peptide substrate in the sample (step (b)) is performed at a single time point, e.g., 15 min. In one embodiment, a MS measurement of the exogenous synthetic peptide substrate in the sample (step (b)) is performed over a time course, e.g., from 100% substrate to decreased or essentially depleted substrate. The time course may be performed utilizing sequential aliquot removal from the same clinical sample, or may be performed on multiple samples assayed in parallel. In all embodiments, the clinical samples are analyzed using MSIA, which selectively targets the substrate peptide, both reacted and non-reacted. MS detection allows for differentiation of the two forms, i.e., the reacted (cleaved, degraded) form of the substrate peptide, and unreacted parent form of the substrate peptide. It thus provides a method of analyzing the activity of an enzyme in a biological system.
In embodiments, clinical samples were treated with various inhibitors to determine the modulation, if any, of the endogenous enzyme activity. For example, if DPP4 was the enzyme whose activity was to be assessed, inhibitors were used that were known or speculated to inhibit DPP4 activity. Concentration studies were also performed (data not shown).
The following results were obtained with the leupeptin inhibitor:
The following results were obtained with the AEBSF inhibitor: […]

[1] = Human Plasma 1, 1 mM leupeptin, 0 min
[2] = Human Plasma 1, 1 mM leupeptin, 15 min
[3] = Human Plasma 1, 1 mM leupeptin, 30 min
[4] = Human Plasma 1, 1 mM leupeptin, 45 min
[5] = Human Plasma 1, 1 mM leupeptin, 60 min
[6] = Human Plasma 1, 1 mM leupeptin, 75 min
[7] = Human Plasma 1, 5 mM AEBSF, 0 min
[8] = Human Plasma 1, 5 mM AEBSF, 15 min
[9] = Human Plasma 1, 5 mM AEBSF, 30 min
[10] = Human Plasma 1, 5 mM AEBSF, 45 min
[11] = Human Plasma 1, 5 mM AEBSF, 60 min
[12] = Human Plasma 1, 5 mM AEBSF, 75 min

T1 sequence (P27487 39-766 limits assumed): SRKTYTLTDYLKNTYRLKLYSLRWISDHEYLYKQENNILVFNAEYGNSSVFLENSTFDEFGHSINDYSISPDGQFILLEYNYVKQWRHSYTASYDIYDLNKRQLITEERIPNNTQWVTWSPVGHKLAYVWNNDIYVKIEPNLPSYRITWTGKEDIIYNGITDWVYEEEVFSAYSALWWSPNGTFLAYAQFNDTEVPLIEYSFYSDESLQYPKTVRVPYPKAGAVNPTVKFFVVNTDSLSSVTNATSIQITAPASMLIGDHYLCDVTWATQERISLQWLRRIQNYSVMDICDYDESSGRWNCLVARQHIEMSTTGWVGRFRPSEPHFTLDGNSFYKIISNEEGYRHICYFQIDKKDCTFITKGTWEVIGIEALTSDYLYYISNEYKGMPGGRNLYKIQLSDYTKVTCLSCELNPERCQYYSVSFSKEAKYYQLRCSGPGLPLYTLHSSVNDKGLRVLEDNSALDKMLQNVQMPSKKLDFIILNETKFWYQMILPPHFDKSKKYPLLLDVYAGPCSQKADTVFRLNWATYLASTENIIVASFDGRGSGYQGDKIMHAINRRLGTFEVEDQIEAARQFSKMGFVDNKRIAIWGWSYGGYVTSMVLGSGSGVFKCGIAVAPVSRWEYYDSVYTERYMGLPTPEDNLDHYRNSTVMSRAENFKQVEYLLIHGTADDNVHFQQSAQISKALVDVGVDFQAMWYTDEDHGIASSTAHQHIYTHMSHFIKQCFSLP

SMILES: CC(=O)N[C@@H](CC(C)C)C(=O)N[C@@H](CC(C)C)C(=O)N[C@H](C=O)CCCNC(=N)N [leupeptin]
- % Product [1]: 0%
- % Substrate [1]: 100%
- % Product [2]: 52.6%
- % Substrate [2]: 47.4%
- % Product [3]: 77.8%
- % Substrate [3]: 22.2%
- % Product [4]: 85.1%
- % Substrate [4]: 14.9%
- % Product [5]: 87.9%
- % Substrate [5]: 12.1%
- % Product [6]: 90.2%
- % Substrate [6]: 9.8%

SMILES: NCCc1ccc(S(=O)(=O)F)cc1 [AEBSF]
- % Product [7]: 0%
- % Substrate [7]: 100%
- % Product [8]: 11.7%
- % Substrate [8]: 88.3%
- % Product [9]: 17.4%
- % Substrate [9]: 82.6%
- % Product [10]: 22.2%
- % Substrate [10]: 77.8%
- % Product [11]: 24.3%
- % Substrate [11]: 75.7%
- % Product [12]: 24.8%
- % Substrate [12]: 75.2%
